According to ChEMBL document CHEMBL2074338, “Characterization of organic anion transport inhibitors using cells stably expressing human organic anion transporters” (Eur J Pharmacol, 2001):
pKi: −log10 of the molar value.

These compounds were tested against T1, Organic anion transporter 3 (Homo sapiens, UniProt Q8TCC7) (assay: TP_TRANSPORTER: inhibition of E1S uptake in OAT3-expressing S2 cells).
T1 sequence (Q8TCC7 whole entry): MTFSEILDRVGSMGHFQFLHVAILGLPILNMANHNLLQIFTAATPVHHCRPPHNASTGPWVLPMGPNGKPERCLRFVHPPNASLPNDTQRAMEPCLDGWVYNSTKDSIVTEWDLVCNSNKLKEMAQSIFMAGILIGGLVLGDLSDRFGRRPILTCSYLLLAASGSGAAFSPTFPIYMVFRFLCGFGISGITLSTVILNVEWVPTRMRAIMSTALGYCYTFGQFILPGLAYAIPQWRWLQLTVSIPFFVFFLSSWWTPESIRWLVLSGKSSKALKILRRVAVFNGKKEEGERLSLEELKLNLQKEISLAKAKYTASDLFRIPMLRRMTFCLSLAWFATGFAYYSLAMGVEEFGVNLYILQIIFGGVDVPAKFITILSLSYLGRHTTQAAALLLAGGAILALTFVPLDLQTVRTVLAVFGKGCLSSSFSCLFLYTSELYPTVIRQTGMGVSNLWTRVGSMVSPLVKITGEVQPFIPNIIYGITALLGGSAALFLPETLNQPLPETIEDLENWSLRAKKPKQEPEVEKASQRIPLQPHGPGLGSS
Type: functional, cell-based
A pKi of 4.32 was found for `O=C(O)CCNC(=O)c1ccccc1` [BETAMIPRON] in this work. A pKi of 5.43 was found for `CCCn1c(=O)c2[nH]c(C34CC5CC(CC3C5)C4)nc2n(CCC)c1=O` [ROLOFYLLINE] in this work. A pKi of 3.64 was found for `CC1(C)C[C@@H]1C(=O)N/C(=C\CCCCSC[C@H](N)C(=O)O)C(=O)O` [CILASTATIN] in this work.
